Laboratory results published in US4906623A, “3-Imidazolium cephalosporin derivatives” (Otsuka Kagaku Kabushiki Kaisha, priority 1985, dated 1990).
≈ marks a conversion by molar mass, not a printed value. Like-named read-outs stand apart in the source and are kept apart here.

How the values were obtained:
Test in all cases: in vitro anti-bacterial activity, two-fold agar plate dilution method
Assay type in all cases: cell-based
Proteus mirabilis = tested on: Proteus mirabilis
Method: (§1) The agent for preventing and treating bacterial infections was tested for in vitro anti-bacterial activity by the following two-fold agar plate dilution method. Each test strain was incubated for 20 hours in a bouillon for measuring sensitivity to obtain a test culture (containing about […]). Portions of sensitivity measuring agar medium containing varying concentrations of the antibacterial agent were each innoculated with a 0.005 ml portion of the culture, followed by incubation at 37° C. for 20 hours. The minimum growth inhibitory concentration (MIC) in μg/ml was then determined.
(§2) MIC=minimum inhibitory concentration

Proteus vulgaris = tested on: Proteus vulgaris
Method: as §1, §2

[1] = tested on: Staphylococcus aureus 209P; conditions: Staphylococcus aureus 209P, agar dilution, 37° C., 20 hours
Method: as §1, §2

Pseudomonas aeruginosa = tested on: Pseudomonas aeruginosa
Method: as §1, §2

Pseudomonas cepacia = conditions: 37° C., 20 hours
Method: as §1, §2

Klebsiella pneumoniae = tested on: Klebsiella pneumoniae
Method: as §1, §2

[2] = tested on: Escherichia coli CSH(RE45); conditions: 37° C., 20 hours
Method: as §1, §2

Serratia marcescens = tested on: Serratia marcescens
Method: as §1, §2

[3] = tested on: Escherichia coli NIHJ-JC2
Method: as §1, §2

[4] = agar dilution, 37° C., 20 hours, read-out: MIC
[5] = Burkholderia cepacia, read-out: MIC
[6] = NIHJJC2, Escherichia coli NIHJ-JC2, agar dilution, 37° C., 20 hours, read-out: MIC
[7] = agar dilution, 37° C., 20 hours

Compound | MIC (Proteus mirabilis; 20 h) | MIC (Proteus vulgaris; 20 h) | MIC ([1]; read-out: MIC) | MIC (Pseudomonas aeruginosa; [4]) | MIC (Pseudomonas cepacia; [5]) | MIC (Klebsiella pneumoniae; 20 h) | MIC ([2]; read-out: MIC) | MIC (Serratia marcescens; 20 h) | MIC [3, 6] | MIC (Proteus mirabilis; [4]) | MIC (Proteus vulgaris; [4]) | MIC (Klebsiella pneumoniae; [4]) | MIC (Serratia marcescens; [4]) | further results
C=CCn1c[n+](CC2=C(C(=O)[O-])N3C(=O)C(NC(=O)/C(=N\OC(C)(C)C(=O)O)c4csc(N)n4)C3SC2)c2ccccc21 (stereo not drawn) [U, 7-{2-(2-aminothiazole-4-yl)-2-[potassium(2,2-dimethylacetate)oxyimino]acetamide}-3-[benz-3-N-(2-propenyl)-1-imidazoliomethyl]-3-cephem-4-carboxylate] | 1.56 µg/mL | 0.39 µg/mL | 6.25 µg/mL | 6.25 µg/mL | 25 µg/mL | 0.78 µg/mL | 0.2 µg/mL | 1.56 µg/mL | 0.39 µg/mL | – | – | – | – | –
C=CCO/N=C(\C(=O)NC1C(=O)N2C(C(=O)[O-])=C(C[n+]3ccn(-c4ccc(O)cc4)c3)CSC12)c1csc(N)n1 (stereo not drawn) [C, 7-[2-(2-aminothiazole-4-yl)-2-(2-propenyloxyimino)acetamide]-3-[3-(4-hydroxyphenyl)-1-imidazoliomethyl]-3-cephem-4-carboxylate] | – | – | 0.39 µg/mL (≈ 0.671 µM) | 12.5 µg/mL (≈ 21.5 µM) | 6.25 µg/mL (≈ 10.7 µM) | – | 0.2 µg/mL (≈ 0.344 µM) | – | 0.39 µg/mL (≈ 0.671 µM) | 0.78 µg/mL (≈ 1.34 µM) | 0.78 µg/mL (≈ 1.34 µM) | 0.78 µg/mL (≈ 1.34 µM) | 3.12 µg/mL (≈ 5.36 µM) | –
CC(C)=CCn1c[n+](CC2=C(C(=O)[O-])N3C(=O)C(NC(=O)/C(=N\OC(C)(C)C(=O)O)c4csc(N)n4)C3SC2)c2ccccc21 (stereo not drawn) [Y, 7-{2-(2-aminothiazole-4-yl)-2-[potassium(2,2-dimethylacetate)oxyimino]acetamide}-3-[benz-3-N-(3-methyl-2-butenyl)-1-imidazoliomethyl]-3-cephem-4-carboxylate] | – | 3.13 µg/mL | 6.25 µg/mL | 25 µg/mL | > 100 µg/mL | – | 1.56 µg/mL | – | 6.25 µg/mL | 6.25 µg/mL | – | 12.5 µg/mL | 12.5 µg/mL | –
C=CCCn1c[n+](CC2=C(C(=O)[O-])N3C(=O)C(NC(=O)/C(=N\OC(C)(C)C(=O)O)c4csc(N)n4)C3SC2)c2ccccc21 (stereo not drawn) [Compound S, 7-{2-(2-aminothiazole-4-yl)-2-[potassium(2,2-dimethylacetate)oxyimino]acetamide}-3-[benz-3-N-(3-butenyl)-1-imidazoliomethyl]-3-cephem-4-carboxylate] | 3.13 µg/mL | 0.78 µg/mL | 0.78 µg/mL | 6.25 µg/mL | 25 µg/mL | 3.13 µg/mL | 0.39 µg/mL | 3.13 µg/mL | 0.78 µg/mL | – | – | – | – | –
C#CCn1cc[n+](CC2=C(C(=O)[O-])N3C(=O)C(NC(=O)/C(=N\OCC=C)c4csc(N)n4)C3SC2)c1 (stereo not drawn) [D, 7-[2-(2-aminothiazole-4-yl)-2-(2-propenyloxyimino)acetamide]-3-[3-(2-propynyl)-1-imidazoliomethyl]-3-cephem-4-carboxylate] | – | – | 0.78 µg/mL (≈ 1.48 µM) | 12.5 µg/mL (≈ 23.7 µM) | 12.5 µg/mL (≈ 23.7 µM) | 0.78 µg/mL (≈ 1.48 µM) | 0.78 µg/mL (≈ 1.48 µM) | – | 0.78 µg/mL (≈ 1.48 µM) | 1.56 µg/mL (≈ 2.96 µM) | 1.56 µg/mL (≈ 2.96 µM) | – | 3.13 µg/mL (≈ 5.93 µM) | –
C=C(C)Cn1c[n+](CC2=C(C(=O)[O-])N3C(=O)C(NC(=O)/C(=N\OC(C)(C)C(=O)O)c4csc(N)n4)C3SC2)c2ccccc21 (stereo not drawn) [R, 7-{2-(2-aminothiazole-4-yl)-2-[potassium(2,2-dimethylacetate)oxyimino]acetamide}-3-[benz-3-N-(2-methyl-2-propenyl)-1-imidazoliomethyl]-3-cephem-4-carboxylate] | 3.13 µg/mL | 0.78 µg/mL | 6.25 µg/mL | 12.5 µg/mL | 25 µg/mL | 3.13 µg/mL | 1.56 µg/mL | 1.56 µg/mL | 0.78 µg/mL | – | – | – | – | –
C#CCn1c[n+](CC2=C(C(=O)[O-])N3C(=O)C(NC(=O)/C(=N\OC(C)(C)C(=O)O)c4csc(N)n4)C3SC2)c2ccccc21 (stereo not drawn) [Q, 7-{2-(2-aminothiazole-4-yl)-2-[potassium(2,2-dimethylacetate)oxyimino]acetamide}-3-[benz-3-N-(2-propynyl)-1-imidazoliomethyl]-3-cephem-4-carboxylate] | 0.39 µg/mL | 0.1 µg/mL | 3.13 µg/mL | – | 12.5 µg/mL | 0.78 µg/mL | 0.2 µg/mL | 0.78 µg/mL | 0.2 µg/mL | – | – | – | – | MIC (Pseudomonas aeruginosa; 20 h): 3.13 µg/mL
CC=CCn1c[n+](CC2=C(C(=O)[O-])N3C(=O)C(NC(=O)/C(=N\OC(C)(C)C(=O)O)c4csc(N)n4)C3SC2)c2ccccc21 (stereo not drawn) [X, 7-{2-(2-aminothiazole-4-yl)-2-[potassium(2,2-dimethylacetate)oxyimino]acetamide}-3-[benz-3-N-(2-butenyl)-1-imidazoliomethyl]-3-cephem-4-carboxylate] | 1.56 µg/mL | 1.56 µg/mL | 6.25 µg/mL | 12.5 µg/mL | 50 µg/mL | 3.13 µg/mL | 0.78 µg/mL | 1.56 µg/mL | 1.56 µg/mL | – | – | – | – | –
CC(C)(O/N=C(\C(=O)NC1C(=O)N2C(C(=O)[O-])=C(C[n+]3ccn(C4CCCCC4)c3)CSC12)c1csc(N)n1)C(=O)O (stereo not drawn) [N, 7-{2-(2-aminothiazole-4-yl)-2-[potassium(2,2-dimethylacetate)oxyimino]acetamide}-3-(3-cyclohexyl-1-imidazoliomethyl)-3-cephem-4-carboxylate] | – | – | 6.25 µg/mL | 6.25 µg/mL | 25 µg/mL | 0.78 µg/mL | 0.1 µg/mL | – | 0.2 µg/mL | 0.2 µg/mL | 0.2 µg/mL | – | 1.56 µg/mL | –
C=CCn1c[n+](CC2=C(C(=O)[O-])N3C(=O)C(NC(=O)/C(=N\OC)c4csc(N)n4)C3SC2)c2ccccc21 (stereo not drawn) [V, 7-[2-(2-aminothiazole-4-yl)-2-methoxyiminoacetamide}-3-[benz-3-N-(2-propenyl)-1-imidazoliomethyl]-3-cephem-4-carboxylate] | – | – | 3.13 µg/mL (≈ 5.65 µM) | > 100 µg/mL | > 100 µg/mL | – | 3.13 µg/mL (≈ 5.65 µM) | – | – | 6.25 µg/mL (≈ 11.3 µM) | 3.13 µg/mL (≈ 5.65 µM) | 1.56 µg/mL (≈ 2.82 µM) | 12.5 µg/mL (≈ 22.6 µM) | MIC ([3]; Escherichia coli, NIHJJC2, 20 h): 0.78 µg/mL (≈ 1.41 µM)
C=CCn1cc[n+](CC2=C(C(=O)[O-])N3C(=O)C(NC(=O)/C(=N\OC)c4csc(N)n4)C3SC2)c1 (stereo not drawn) [F, 7-[2-(2-aminothiazole-4-yl)-2-methoxyiminoacetamide]-3-[3-(2-propenyl)-1-imidazoliomethyl]-3-cephem-4-carboxylate] | 0.39 µg/mL (≈ 0.774 µM) | 0.39 µg/mL (≈ 0.774 µM) | 6.25 µg/mL (≈ 12.4 µM) | 25 µg/mL (≈ 49.6 µM) | 50 µg/mL (≈ 99.3 µM) | 0.1 µg/mL (≈ 0.199 µM) | 0.2 µg/mL (≈ 0.397 µM) | – | 0.1 µg/mL (≈ 0.199 µM) | – | – | – | 0.78 µg/mL (≈ 1.55 µM) | –
C=CCn1cc[n+](CC2=C(C(=O)[O-])N3C(=O)C(NC(=O)/C(=N\OC(C)(C)C(=O)O)c4csc(N)n4)C3SC2)c1 (stereo not drawn) [H, 7-{2-(2-aminothiazole-4-yl)-2-[potassium(2,2-dimethylacetate)oxyimino]acetamide}-3-[3-(2-propenyl)-1-imidazoliomethyl]-3-cephem-4-carboxylate] | – | – | 5 µg/mL | 3.12 µg/mL | 6.25 µg/mL | – | 0.1 µg/mL | – | 0.2 µg/mL | 0.2 µg/mL | 0.1 µg/mL | 0.78 µg/mL | 0.78 µg/mL | –
C=CCO/N=C(\C(=O)NC1C(=O)N2C(C(=O)[O-])=C(C[n+]3ccn(C)c3)CSC12)c1csc(N)n1 (stereo not drawn) [E, 7-[2-(2-aminothiazole-4-yl)-2-(2-propenyloxyimino)acetamide]-3-(3-methyl-1-imidazoliomethyl)-3-cephem-4-carboxylate] | – | – | 0.78 µg/mL (≈ 1.55 µM) | 12.5 µg/mL (≈ 24.8 µM) | > 50 µg/mL | – | 0.05 µg/mL (≈ 0.0993 µM) | – | 0.2 µg/mL (≈ 0.397 µM) | 0.78 µg/mL (≈ 1.55 µM) | 0.39 µg/mL (≈ 0.774 µM) | 0.02 µg/mL (≈ 0.0397 µM) | 1.56 µg/mL (≈ 3.1 µM) | –
C=CCO/N=C(\C(=O)NC1C(=O)N2C(C(=O)[O-])=C(C[n+]3cn(CC=C)c4ccccc43)CSC12)c1csc(N)n1 (stereo not drawn) [W, 7-[2-(2-aminothiazole-4-yl)-2-(2-propenyloxyimino)acetamide]-3-[benz-3-N-(2-propeny)-1-imidazoliomethyl]-3-cephem-4-carboxylate] | – | 3.13 µg/mL (≈ 5.4 µM) | 1.56 µg/mL (≈ 2.69 µM) | 50 µg/mL (≈ 86.3 µM) | > 100 µg/mL | – | 1.56 µg/mL (≈ 2.69 µM) | – | 3.13 µg/mL (≈ 5.4 µM) | 6.25 µg/mL (≈ 10.8 µM) | – | 6.25 µg/mL (≈ 10.8 µM) | 25 µg/mL (≈ 43.1 µM) | –
C=Cn1cc[n+](CC2=C(C(=O)[O-])N3C(=O)C(NC(=O)/C(=N\OC(C)(C)C(=O)O)c4csc(N)n4)C3SC2)c1 (stereo not drawn) [Compound M, 7-{2-(2-aminothiazole-4-yl)-2-[potassium(2,2-dimethylacetate)oxyimino]acetamide}-3-(3-vinyl-1-imidazoliomethyl)-3-cephem-4-carboxylate] | 0.1 µg/mL | 0.1 µg/mL | 6.25 µg/mL | – | 12.5 µg/mL | 0.39 µg/mL | 0.1 µg/mL | 0.78 µg/mL | 0.2 µg/mL | – | – | – | – | MIC (Pseudomonas aeruginosa; 20 h): 3.13 µg/mL
7-{2-(2-aminothiazole-4-yl)-2-[potassium(2,2-dimethylacetate)oxyimino]acetamide}-3-(3-acetophenyl-1-imidazoliomethyl)-3-cephem-4-carboxylate | – | – | – | – | – | – | – | – | – | – | – | – | – | MIC (Proteus mirabilis; [7]): 0.2 µg/mL; MIC (Proteus vulgaris; [7]): 0.2 µg/mL; MIC [1]: 6.25 µg/mL; MIC (Pseudomonas aeruginosa; [7]): 12.5 µg/mL; MIC (Pseudomonas cepacia): 25 µg/mL; MIC (Klebsiella pneumoniae; [7]): 1.56 µg/mL; MIC [2]: 0.2 µg/mL; MIC (Serratia marcescens; [7]): 1.56 µg/mL; MIC ([3]; Escherichia coli NIHJ-JC2, agar dilution, 37° C., 20 hours): 0.39 µg/mL
